# Measurements taken from patent publication US7994185B2, “Benzene sulfonamide thiazole and oxazole compounds” (Glaxo Smith Kline LLC, priority 2008, dated 2011).
# Like-named read-outs stand apart in the source and are kept apart here.
# Legend:
# [1] = test system: Human melanoma cancer cells (SK-MEL-28); experiment: Cell growth inhibition assay (CellTiter-Glo), SK-MEL-28; format: cell-based
# [2] = test system: Human colon tumor cells (Colo205); experiment: Cell growth inhibition assay (CellTiter-Glo), Colo205; format: cell-based
# Outline: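 Colo205 (and SK-MEL-28) cells in RPMI with 10% FBS were exposed to 10-point 1:3 serial dilutions of compound at 0.2% final DMSO for 3 days at 37 °C. Total ATP, a surrogate for cell number, was read by CellTiter-Glo luminescence, with % growth inhibition relative to DMSO-treated wells.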
# [3] = molecular target: T1, BRAFV600E full-length (amino acids 2-766) (Homo sapiens, UniProt P15056, V600E); experiment: B-Raf Accelerated MEK ATPase assay (BRAMA); format: biochemical; details: categorized
# T1 construct: His6-tagged BRAFV600E full-length (amino acids 2-766); His6; made in house; host or cells: baculovirus expression system (insect cells)
# T1 sequence (P15056 2-766 V600E): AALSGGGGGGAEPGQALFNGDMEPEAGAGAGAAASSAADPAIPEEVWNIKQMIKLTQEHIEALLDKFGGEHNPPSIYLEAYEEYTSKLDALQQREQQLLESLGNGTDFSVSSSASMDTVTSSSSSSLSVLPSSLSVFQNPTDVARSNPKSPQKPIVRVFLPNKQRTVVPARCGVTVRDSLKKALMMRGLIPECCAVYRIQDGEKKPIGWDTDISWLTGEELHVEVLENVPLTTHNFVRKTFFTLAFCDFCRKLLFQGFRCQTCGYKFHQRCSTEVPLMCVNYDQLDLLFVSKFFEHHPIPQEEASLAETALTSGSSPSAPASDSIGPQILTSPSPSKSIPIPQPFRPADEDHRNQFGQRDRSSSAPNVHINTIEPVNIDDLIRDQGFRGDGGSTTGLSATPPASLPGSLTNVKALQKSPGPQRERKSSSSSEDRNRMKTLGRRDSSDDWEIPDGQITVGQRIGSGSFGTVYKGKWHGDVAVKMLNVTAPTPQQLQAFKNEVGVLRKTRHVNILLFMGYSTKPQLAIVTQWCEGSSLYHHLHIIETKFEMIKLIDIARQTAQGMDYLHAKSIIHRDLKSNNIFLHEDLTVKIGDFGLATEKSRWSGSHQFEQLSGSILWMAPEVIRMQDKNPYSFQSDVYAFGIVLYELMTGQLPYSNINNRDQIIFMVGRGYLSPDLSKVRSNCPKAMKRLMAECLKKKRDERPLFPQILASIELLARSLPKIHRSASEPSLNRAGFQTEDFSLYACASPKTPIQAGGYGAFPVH
# Outline: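 Coupled-enzyme readout: ADP generated by MEK-mediated ATP hydrolysis, uncoupled from ERK phosphorylation, is linked to NADH oxidation through pyruvate kinase and lactate dehydrogenase.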
# [4] = SK-MEL-28, 72 h, Table 3a, 3 days incubation, read-out: Activity in SK-MEL-28 Tumor Cells
# [5] = SK-MEL-28, Table 3b, later runs, average for the one or more runs, categorized, read-out: IC50 for SK-MEL-28
# [6] = COLO 205, 72 h, Table 2a, 3 days incubation, read-out: Activity in Colo205 Tumor Cells
# [7] = COLO 205, Table 2b, later runs, average for the one or more runs, categorized, read-out: IC50 for Colo205
# [8] = B-Raf Activity, Table 1a, highest pIC50 for the one or more runs
# [9] = Table 1b, later runs, average pIC50 for the one or more runs, read-out: B-Raf pIC50 (converted)
# [10] = B-Raf pIC50, Table 1b, later runs, average pIC50 for the one or more runs
SMILES,"IC50 [1, 4]","IC50 [1, 5]","IC50 [2, 6]","IC50 [2, 7]","IC50 [3, 8]","IC50 [3, 9]","IC50 [3, 10]"
CC(=O)NCCNc1nccc(-c2sc(C(C)C)nc2-c2ccc(F)c(NS(=O)(=O)c3cc(F)ccc3F)c2)n1 [Example 186],100 to 1000 nM,100 to 1000 nM,100 to 1000 nM,100 to 1000 nM,< 100 nM,3.16 to 31.6 nM,–
CC(=O)NCCNc1nccc(-c2sc(C(C)C)nc2-c2cccc(NS(=O)(=O)c3cc(F)ccc3F)c2F)n1 [Example 187],< 100 nM,< 100 nM,< 100 nM,1000 to 10000 nM,< 100 nM,–,≤ 3.16 nM
O=C1CCCN1CCCNc1nccc(-c2sc(N3CCOCC3)nc2-c2cccc(NS(=O)(=O)c3cc(F)ccc3F)c2F)n1 [Example 188],< 100 nM,< 100 nM,< 100 nM,< 100 nM,< 100 nM,–,≤ 3.16 nM
CC(C)c1nc(-c2cccc(NS(=O)(=O)c3cc(F)ccc3F)c2F)c(-c2ccnc(NCCNC(=O)OC(C)(C)C)n2)s1 [Example 189],< 100 nM,< 100 nM,< 100 nM,< 100 nM,< 100 nM,–,≤ 3.16 nM
CC(C)c1nc(-c2cccc(NS(=O)(=O)c3cc(F)ccc3F)c2F)c(-c2ccnc(NCCN3CCCC3=O)n2)s1 [Example 190],< 100 nM,< 100 nM,< 100 nM,< 100 nM,< 100 nM,–,≤ 3.16 nM
CC(C)c1nc(-c2cccc(NS(=O)(=O)c3cc(F)ccc3F)c2F)c(-c2ccnc(NCCNS(C)(=O)=O)n2)s1 [Example 191],< 100 nM,< 100 nM,< 100 nM,< 100 nM,< 100 nM,–,≤ 3.16 nM
CC(C)c1nc(-c2cccc(NS(=O)(=O)c3cc(F)ccc3F)c2F)c(-c2ccnc(NCCNC(=O)CO)n2)s1 [Example 192],100 to 1000 nM,< 100 nM,100 to 1000 nM,100 to 1000 nM,< 100 nM,–,≤ 3.16 nM
CC(C)c1nc(-c2cccc(NS(=O)(=O)c3cc(F)ccc3F)c2F)c(-c2ccnc(NCCCNC(=O)OC(C)(C)C)n2)s1 [Example 193],100 to 1000 nM,100 to 1000 nM,100 to 1000 nM,100 to 1000 nM,< 100 nM,3.16 to 31.6 nM,–
CC(=O)NCCCNc1nccc(-c2sc(C(C)C)nc2-c2cccc(NS(=O)(=O)c3cc(F)ccc3F)c2F)n1 [Example 194],< 100 nM,< 100 nM,< 100 nM,–,< 100 nM,–,≤ 3.16 nM
CC(=O)NCCNc1nccc(-c2sc(C(C)(C)C)nc2-c2cccc(NS(=O)(=O)c3cc(F)ccc3F)c2F)n1 [Example 197],< 100 nM,< 100 nM,< 100 nM,< 100 nM,< 100 nM,–,≤ 3.16 nM
CC(C)(C)OC(=O)NCCNc1nccc(-c2sc(C(C)(C)C)nc2-c2cccc(NS(=O)(=O)c3cc(F)ccc3F)c2F)n1 [Example 198],100 to 1000 nM,100 to 1000 nM,100 to 1000 nM,100 to 1000 nM,< 100 nM,–,≤ 3.16 nM
CC(C)(C)c1nc(-c2cccc(NS(=O)(=O)c3cc(F)ccc3F)c2F)c(-c2ccnc(NCCNS(C)(=O)=O)n2)s1 [Example 199],< 100 nM,< 100 nM,< 100 nM,< 100 nM,< 100 nM,–,≤ 3.16 nM
Nc1nccc(-c2sc(N3CCOCC3)nc2-c2cccc(NS(=O)(=O)c3cc(F)ccc3F)c2)n1 [Example 200],100 to 1000 nM,100 to 1000 nM,100 to 1000 nM,100 to 1000 nM,< 100 nM,3.16 to 31.6 nM,–
CC(C)c1nc(-c2ccc(F)c(NS(=O)(=O)c3cc(F)ccc3F)c2)c(-c2ccnc(NCCS(C)(=O)=O)n2)s1 [Example 201],< 100 nM,< 100 nM,< 100 nM,< 100 nM,< 100 nM,–,≤ 3.16 nM
CS(=O)(=O)CCNc1nccc(-c2sc(N3CCOCC3)nc2-c2ccc(F)c(NS(=O)(=O)c3c(F)cccc3F)c2)n1 [Example 202],100 to 1000 nM,100 to 1000 nM,> 1000 nM,1000 to 10000 nM,< 100 nM,–,31.6 to 1000 nM
CC(C)c1nc(-c2ccc(F)c(NS(=O)(=O)c3cc(F)ccc3F)c2)c(-c2ccnc(NCCCS(C)(=O)=O)n2)s1 [Example 204],< 100 nM,< 100 nM,< 100 nM,< 100 nM,< 100 nM,3.16 to 31.6 nM,–

SMILES,"IC50 [1, 4]","IC50 [1, 5]","IC50 [2, 6]","IC50 [2, 7]","IC50 [3, 8]","IC50 [3, 9]","IC50 [3, 10]"
CC(C)c1nc(-c2ccc(F)c(NS(=O)(=O)c3cc(F)ccc3F)c2)c(-c2ccnc(NC3CCS(=O)(=O)CC3)n2)s1 [Example 205],100 to 1000 nM,100 to 1000 nM,100 to 1000 nM,100 to 1000 nM,< 100 nM,3.16 to 31.6 nM,–
CC(C)CNc1nccc(-c2sc(N3CCOCC3)nc2-c2cccc(NS(=O)(=O)c3cc(F)ccc3F)c2)n1 [Example 206],< 100 nM,< 100 nM,< 100 nM,< 100 nM,< 100 nM,3.16 to 31.6 nM,–
O=S(=O)(Nc1cccc(-c2nc(N3CCOCC3)sc2-c2ccnc(NCCO)n2)c1F)c1cc(F)ccc1F [Example 208],< 100 nM,< 100 nM,< 100 nM,< 100 nM,< 100 nM,–,≤ 3.16 nM
O=S(=O)(Nc1cccc(-c2nc(N3CCOCC3)sc2-c2ccnc(NCC3CCCO3)n2)c1F)c1cc(F)ccc1F (stereo not shown) [Example 209],< 100 nM,< 100 nM,< 100 nM,< 100 nM,< 100 nM,–,≤ 3.16 nM
CC(C)(C)c1nc(-c2cccc(NS(=O)(=O)c3cc(F)ccc3F)c2F)c(-c2ccnc(NCCO)n2)s1 [Example 210],< 100 nM,< 100 nM,< 100 nM,< 100 nM,< 100 nM,–,≤ 3.16 nM
COCCCNc1nccc(-c2sc(C(C)(C)C)nc2-c2cccc(NS(=O)(=O)c3cc(F)ccc3F)c2F)n1 [Example 211],< 100 nM,< 100 nM,< 100 nM,< 100 nM,< 100 nM,–,≤ 3.16 nM
CCOCCNc1nccc(-c2sc(C(C)(C)C)nc2-c2cccc(NS(=O)(=O)c3cc(F)ccc3F)c2F)n1 [Example 212],< 100 nM,< 100 nM,< 100 nM,< 100 nM,< 100 nM,–,≤ 3.16 nM
CC(C)(C)c1nc(-c2cccc(NS(=O)(=O)c3cc(F)ccc3F)c2F)c(-c2ccnc(NCC3CCCO3)n2)s1 (stereo not shown) [Example 213],< 100 nM,< 100 nM,< 100 nM,< 100 nM,< 100 nM,–,≤ 3.16 nM
CC(C)(C)c1nc(-c2cccc(NS(=O)(=O)c3cc(F)ccc3F)c2F)c(-c2ccnc(CCS(C)(=O)=O)n2)s1 [Example 214],< 100 nM,< 100 nM,< 100 nM,< 100 nM,< 100 nM,–,≤ 3.16 nM
CC(C)(C)c1nc(-c2cccc(NS(=O)(=O)c3cc(F)ccc3F)c2F)c(-c2ccnc(CCN3CCOCC3)n2)s1 [Example 215],< 100 nM,< 100 nM,< 100 nM,< 100 nM,< 100 nM,3.16 to 31.6 nM,–
CC(C)(C)c1nc(-c2cccc(NS(=O)(=O)c3cc(F)ccc3F)c2F)c(-c2ccnc(CCN3CCS(=O)(=O)CC3)n2)s1 [Example 216],–,< 100 nM,–,< 100 nM,< 100 nM,3.16 to 31.6 nM,–
CC(C)(C)c1nc(-c2cccc(NS(=O)(=O)c3cc(F)ccc3F)c2F)c(-c2ccnc(CCCl)n2)s1 [Example 217],–,< 100 nM,–,< 100 nM,< 100 nM,–,≤ 3.16 nM
"CC(C)(C)c1nc(-c2cccc(NS(=O)(=O)c3cccc(F)c3)c2F)c(-c2ccnc(N)n2)s1 [Example 218, N-{3-[5-(2-amino-4-pyrimidinyl)-2-(1,1-dimethylethyl)-1,3-thiazol-4-yl]-2-fluorophenyl}-3-fluorobenzenesulfonamide]",–,< 100 nM,–,< 100 nM,–,–,≤ 3.16 nM
"CC(C)(C)c1nc(-c2cccc(NS(=O)(=O)c3ccccc3)c2F)c(-c2ccnc(N)n2)s1 [Example 219, N-{3-[5-(2-amino-4-pyrimidinyl)-2-(1,1-dimethylethyl)-1,3-thiazol-4-yl]-2-fluorophenyl}benzenesulfonamide]",–,< 100 nM,–,< 100 nM,–,3.16 to 31.6 nM,–
"Cc1nccc(-c2sc(C(C)(C)C)nc2-c2c(F)ccc(NS(=O)(=O)c3cccc(F)c3)c2F)n1 [Example 220, N-{3-[2-(1,1-dimethylethyl)-5-(2-methyl-4-pyrimidinyl)-1,3-thiazol-4-yl]-2,4-difluorophenyl}-3-fluorobenzenesulfonamide]",–,< 100 nM,–,< 100 nM,–,3.16 to 31.6 nM,–
"CC(C)(C)c1nc(-c2c(F)ccc(NS(=O)(=O)c3cccc(F)c3)c2F)c(-c2ccncn2)s1 [Example 221, N-{3-[2-(1,1-dimethylethyl)-5-(4-pyrimidinyl)-1,3-thiazol-4-yl]-2,4-difluorophenyl}-3-fluorobenzenesulfonamide]",–,< 100 nM,–,< 100 nM,–,–,≤ 3.16 nM
